Measured values reported in ChEMBL document CHEMBL1201862, “PubChem BioAssay data set” (2004).
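Exposure lasted 48 hours, with cells grown in 96-well plates and compounds tested at five concentrations. GI50 is the concentration that inhibits growth by half.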 Calls of active or inactive are those of the source. No stated cut-off is given here; in the data, active = GI50 up to about 1.1 µM and inactive = higher.

Key:
Assay in all cases: DTP human tumour cell line panel, 48 h
[1] = system: MDA-MB-231
[2] = system: Malme-3M
[3] = system: HOP-62
[4] = system: RXF 393
[5] = system: OVCAR-4
[6] = system: CAKI-1
[7] = system: U-251
[8] = system: DU-145
[9] = system: NCI-H522
[10] = system: NCI-H460
[11] = system: A549
[12] = system: SR
[13] = system: SK-MEL-28
[14] = system: SK-MEL-5
[15] = system: HCT-116
[16] = system: NCI/ADR-RES
[17] = system: HCT-15
[18] = system: UO-31
[19] = system: HT-29
[20] = system: PC-3

| Structure (SMILES) | GI50 [1] | GI50 [2] | GI50 [3] | GI50 [4] | GI50 [5] | GI50 [6] | GI50 [7] | GI50 [8] | GI50 [9] | GI50 [10] | GI50 [11] | GI50 [12] | GI50 [13] | GI50 [14] | GI50 [15] | GI50 [16] | GI50 [17] [µM] | GI50 [18] | GI50 [19] | GI50 [20] |
| --- | --- | --- | --- | --- | --- | --- | --- | --- | --- | --- | --- | --- | --- | --- | --- | --- | --- | --- | --- | --- |
| COc1ccc(S(=O)(=O)Nc2ccc(-c3csc(N4C(=O)/C(=C/C=C\c5ccccc5)N=C4c4ccccc4)n3)cc2)cc1Cl | 22.9 µM (inactive) | 20.2 µM (inactive) | 31.3 µM (inactive) | 22.3 µM (inactive) | 25.9 µM (inactive) | 36.1 µM (inactive) | 28.8 µM (inactive) | 31.8 µM (inactive) | 18.5 µM (inactive) | 32.1 µM (inactive) | 28.9 µM (inactive) | 31.8 µM (inactive) | 59.7 µM (inactive) | 27.4 µM (inactive) | 25.7 µM (inactive) | 28.7 µM (inactive) | 21.8 | 28.3 µM (inactive) | 56.8 µM (inactive) | 31.3 µM (inactive) |
| CC(C)C[C@H](NC(=O)CCc1cccc2ccccc12)B(O)O | 2.25 µM (inactive) | 0.871 µM (active) | 3.22 µM (inactive) | 0.54 µM (active) | 4.56 µM (inactive) | 0.368 µM (active) | 1.7 µM (inactive) | 4.62 µM (inactive) | 1.24 µM (inactive) | 3.21 µM (inactive) | 4.74 µM (inactive) | 0.37 µM (active) | 0.716 µM (active) | 0.457 µM (active) | 0.473 µM (active) | 1.95 µM (inactive) | 1.26 | 1.94 µM (inactive) | 0.628 µM (active) | 3.9 µM (inactive) |
| C[C@@H](NC(=O)c1ccc(CNC(=O)/C=C/c2cccc(Oc3ccccc3)c2)cc1)c1ccccc1 | > 100 µM (inactive) | > 76.2 µM (inactive) | 17.9 µM (inactive) | 2.51 µM (inactive) | > 100 µM (inactive) | 14.7 µM (inactive) | 47.4 µM (inactive) | > 100 µM (inactive) | > 66.7 µM (inactive) | 34.7 µM (inactive) | 14 µM (inactive) | > 100 µM (inactive) | > 100 µM (inactive) | 99.8 µM (inactive) | > 69.3 µM (inactive) | > 100 µM (inactive) | > 100 | 10.7 µM (inactive) | 22.6 µM (inactive) | > 42.4 µM (inactive) |
| CC(=O)Nc1ccc(C2SCc3nc4ccccc4n32)cc1 (stereo not given) | 26.2 µM (inactive) | 34.7 µM (inactive) | > 100 µM (inactive) | > 100 µM (inactive) | 38.4 µM (inactive) | 39.2 µM (inactive) | 73.3 µM (inactive) | > 100 µM (inactive) | 66.5 µM (inactive) | > 100 µM (inactive) | > 100 µM (inactive) | > 77.1 µM (inactive) | > 100 µM (inactive) | 60.1 µM (inactive) | > 100 µM (inactive) | 33.5 µM (inactive) | 47.3 | 44.3 µM (inactive) | > 100 µM (inactive) | 87.7 µM (inactive) |
| Cn1c(=O)c2nc(CCCCc3nc4c(=O)n(C)c(=S)n(C)c4[nH]3)[nH]c2n(C)c1=S | > 100 µM (inactive) | > 100 µM (inactive) | 38.9 µM (inactive) | > 100 µM (inactive) | > 100 µM (inactive) | > 100 µM (inactive) | 57.4 µM (inactive) | > 100 µM (inactive) | > 100 µM (inactive) | > 100 µM (inactive) | > 100 µM (inactive) | > 100 µM (inactive) | > 100 µM (inactive) | > 100 µM (inactive) | > 100 µM (inactive) | > 100 µM (inactive) | > 100 | > 100 µM (inactive) | > 100 µM (inactive) | > 100 µM (inactive) |
| Cc1cc(C)n(C(C)(C(=O)Cc2ccccc2)n2nc(C)cc2C)n1 | > 100 µM (inactive) | > 100 µM (inactive) | > 100 µM (inactive) | > 100 µM (inactive) | > 100 µM (inactive) | > 100 µM (inactive) | > 100 µM (inactive) | > 100 µM (inactive) | > 100 µM (inactive) | > 100 µM (inactive) | > 100 µM (inactive) | > 100 µM (inactive) | > 100 µM (inactive) | > 100 µM (inactive) | > 100 µM (inactive) | > 100 µM (inactive) | > 100 | > 100 µM (inactive) | > 100 µM (inactive) | > 100 µM (inactive) |
| NC1=Nc2ccccc2Sc2cccc(F)c21 | > 100 µM (inactive) | > 100 µM (inactive) | > 100 µM (inactive) | 24.9 µM (inactive) | 58.3 µM (inactive) | > 100 µM (inactive) | 85.9 µM (inactive) | > 100 µM (inactive) | 64.4 µM (inactive) | > 100 µM (inactive) | 57.5 µM (inactive) | 35.1 µM (inactive) | > 100 µM (inactive) | 38 µM (inactive) | 29.1 µM (inactive) | 43.7 µM (inactive) | > 100 | 84.5 µM (inactive) | > 100 µM (inactive) | 63.5 µM (inactive) |
